# Results: patent publication US20140088184A1 (priority 2011, published 2014)
# Like-named read-outs stand apart in the source and are kept apart here.
# What was measured:
# JFH1-Rluc virus [1] = assay: microbe, parasite or virus in culture; assay type: cell-based, hepatitis C virus (isolate JFH1, genotype 2a); conditions: for relative viral infection / inhibition of viral infection: 50 μM during 2 h infection of Huh-7 cells, luciferase 48 h after infection; for relative viral infection: compared with DMSO; for inhibition of viral infection: EGCG from CALBIOCHEM or EXTRASYNTHESE
# [2] = test system: HCVpp expressing envelope proteins E1 and E2 of the HCV virus of genotypes 1a, 1b, 2a, 2b, 3, 4, 5, 6; assay type: cell-based, hepatitis C virus; conditions: for relative infection: vs DMSO
# JFH1-Rluc virus [3] = assay: Split-up of HCV entry steps (attachment, receptor interaction, endocytosis/fusion), JFH-Luc in Huh-7 cells; conditions: for step of HCV entry inhibited: entry split up into its three constituent steps, general statement of the description
# HCV viral replication = assay: Viral replication (results not shown); assay type: cell-based, hepatitis C virus
# [4] = test system: VSVpp (virus like particles expressing the envelope protein of VSV); assay type: cell-based, vesicular stomatitis virus
# yellow fever virus (YFV) = assay type: cell-based; conditions: Huh-7 cells, EGCG 50 μM vs DMSO
# Sindbis virus (SINV) = assay type: cell-based; conditions: Huh-7 cells, EGCG 50 μM vs DMSO
# [5] = test system: bovine viral diarrhoea virus (BVDV); assay type: cell-based; conditions: MDBK cells, EGCG 50 μM vs DMSO
# JFH1 virus = assay: Cell to cell transmission of HCVcc (JFH1) in Huh-7 cells under agarose; assay type: cell-based, hepatitis C virus; conditions: EGCG 50 μM in 1% agarose medium, 72 h post-infection; control sites average 45
# Experimental: The Huh-7 cells cultured in 24 well plates are infected with HCVcc over a period of 2 hours. The inoculum was eliminated and replaced by DMEM medium supplemented with GLUTAMAX®-1,10% of FCS and 1% low melting point agarose gel (SeaPlaque® Agarose marketed by LONZA®) containing EGCG (50 μM) or an equivalent volume of Dimethyl Sulfoxide (DMSO) as a control. The cells are incubated at 37° C. over a period of 3 days at the end of which the agarose is eliminated and the infection sites are detected using indirect immunofluorescence for HCV E1 protein as previously described.
# A second mode of viral infection is the transmission of the virus from cell to cell. […] The agarose prevents infection of cells by the virus secreted into the medium and thus makes it possible to observe the cell to cell transmission of the virus by virtue of the cells being in contact amongst themselves.
# At seventy-two hours post-infection, the cells were fixed and infection was detected by immunofluorescence after labelling with an anti-E1 antibody. A step of detection is then carried out with a Cy3 coupled secondary antibody. The nuclei are stained with DAPI staining. The number of cells per infection site was quantified (FIG. 5). In the presence of EGCG the infection sites are much smaller. They contain an average of 3-4 infected cells showing that the virus has not propagated after infecting a cell. […]
# HCVcc [6] = assay: microbe, parasite or virus in culture; assay type: cell-based
# HCVcc [7] = assay: Quantitative binding test: HCVcc attachment to Huh-7 cells, HCV RNA by quantitative RT-PCR; assay type: cell-based, hepatitis C virus; conditions: 1 hour at 4° C., MOI 10, vs DMSO; for virus attachment to the cell surface: 50 μM
# Experimental: HCVcc. For the quantitative “binding” experiments, the HCVcc virus was mass produced and purified by concentration and separation in a gradient of iodixanol. Supernatants of infected cells were precipitated with 8% PEG 6000 at 4° C. overnight and centrifuged for 25 minutes at 10 000 rpm. The pellets were resuspended in 1 mL, of PBS, loaded on a continuous iodixanol gradient (10-40%), and centrifuged at 36 000 rpm for 16 hours at 4° C. Fractions of 500 μL were collected and the titre of each fraction was determined. The most infectious fractions were combined in order to perform the experiments.
# Quantitative “Bindinq” Test. The HCVcc virus was contacted with the Huh-7 cells for 1 hour at 4° C. in the presence of EGCG (50 μM), delphinidin chloride (50 μM) or porcine intestinal heparin (500 ug/mL). After 3 washes with PBS, the total RNAs (viral and cellular) were extracted using the NucleoSpin RNA II kit (Macherey-Nagel, Düren, Germany) and the HCV RNA quantified by quantitative RT-PCR (Castelain et al, J Clin Virol 2004). Heparin was used in parallel as a control.
# In order to determine whether the step of attachment to the cell surface was inhibited by EGCG, quantitative “binding” (or attachment) tests have been carried out. The action of delphinidin chloride was tested in parallel. Heparin, a known inhibitor of HCV attachment to the cell surface, was used as a positive control. The cells were incubated with HCVcc purified to a multiplicity of infection of 10 for 1 hour at 4° C. in the presence of DMSO, 50 M of EGCG, 50 μM of delphinidin chloride or 500 μg/mL of heparin. The cells were washed 3 times with cold PBS and the total RNA extracted. The amount of virus fixed was determined by quantifying the viral genomic RNA by means of quantitative RT-PCR.
# HCV JFH1 = assay: Successive infections with supernatants of infected cells (passages P0 to P4); conditions: 50 μM EGCG, passages P0 to P4, 48 h each
# [8] = genotypes 1a, 1b, 2a, 2b, 3, 4, 5 and 6, general statement of the description, no concentration
compound,measurement,setting,value
"Oc1cc(O)c2c(c1)O[C@H](c1ccc(O)c(O)c1)[C@@H](O)C2 [(+)-catechin, reference compound]",relative viral infection,JFH1-Rluc virus [1],identical to that observed for DMSO
"Oc1cc(O)c2c(c1)O[C@H](c1ccc(O)c(O)c1)[C@H](O)C2 [(−)-epicatechin, reference compound]",relative viral infection,JFH1-Rluc virus [1],identical to that observed for DMSO
"O=C(O[C@@H]1Cc2c(O)cc(O)cc2O[C@@H]1c1ccc(O)c(O)c1)c1cc(O)c(O)c(O)c1 [ECG, (2R,3R)-2-(3,4-Dihydroxyphenyl)-3,4-dihydro-1(2H)-benzopyran-3,5,7-triol 3-(3,4,5-trihydroxybenzoate)]",inhibition of viral infection,JFH1-Rluc virus [1],about 40%
same,inhibitory effect across viral genotypes of HCV,[2]; [8],observed in all the viral genotypes of HCV
same,step of HCV entry inhibited,JFH1-Rluc virus [3],only the step of attachment is inhibited
"Oc1cc(O)c2c(c1)O[C@H](c1cc(O)c(O)c(O)c1)[C@H](O)C2 [EGC, (2R,3R)-2-(3,4,5-trihydroxyphenyl) chroman-3,5,7-triol]",inhibition of viral infection,JFH1-Rluc virus [1],~80%
same,inhibitory effect across viral genotypes of HCV,[2]; [8],observed in all the viral genotypes of HCV
same,step of HCV entry inhibited,JFH1-Rluc virus [3],only the step of attachment is inhibited
"O=C(O[C@@H]1Cc2c(O)cc(O)cc2O[C@@H]1c1cc(O)c(O)c(O)c1)c1cc(O)c(O)c(O)c1 [EGCG, (2R,3R)-5,7-dihydroxy-2-(3,4,5-trihydroxyphenyl)-3,4-dihydro-2H-chromen-3-yl 3,4,5-trihydroxybenzoate]",decrease of viral infection (factor),JFH1-Rluc virus [1]; 50 μM EGCG during 2 h infection of Huh-7 cells,greater than 10
same,inhibition of viral infection,JFH1-Rluc virus [1],greater than 95%
same,IC50,"JFH1-Rluc virus [1]; Hepatitis C virus, Huh-7, read-out: IC50 (viral infection)",5 µM
same,effect on viral entry,JFH1-Rluc virus [1]; non infected cells treated with the molecule before or after infection,no effect
same,inhibitory effect with pretreated virus,JFH1-Rluc virus [1]; virus incubated 45 minutes with 50 μM EGCG before infection,increase in the inhibitory effect
same,viral replication,HCV viral replication,not affected
same,effect on the infection by HCVpp of all genotypes tested,[2]; EGCG 50 μM,inhibitory effect
same,relative infection,"[2]; HCVpp genotype 1b, EGCG 50 μM",substantially nil
same,relative infection,"[2]; HCVpp genotype 2a, EGCG 50 μM",substantially nil
same,relative infection,"[2]; HCVpp genotype 2b, EGCG 50 μM",substantially nil
same,relative infection,"[2]; HCVpp genotype 4, EGCG 50 μM",substantially nil
same,inhibitory effect across viral genotypes of HCV,[2]; [8],observed in all the viral genotypes of HCV
same,effect on infection by the VSVpp,[4],no effect
same,relative infection rate,[4],85%
same,effect on cell infection,yellow fever virus (YFV),does not have an inhibitory effect
same,effect on cell infection,Sindbis virus (SINV),does not have an inhibitory effect
same,effect on cell infection,[5],does not have an inhibitory effect
same,number of cells per infection site (average),JFH1 virus,3-4 infected cells
same,IC50,"HCVcc [6]; Hepatitis C virus, Huh-7; read-out: IC50 (concentration inhibiting 50% infection)",~11 µM
same,virus attachment to the cell surface,HCVcc [7],strong decrease
same,percentage of cells infected in each passage of supernatant,HCV JFH1,elimination of HCV from the culture supernatant from the third passage onwards and the complete elimination in the fourth passage
same,infection (luciferase activity),JFH1-Rluc virus [3]; 50 μM EGCG during all three steps of viral entry (Sample 5),significant reduction of infection
same,infection (luciferase activity),"JFH1-Rluc virus [3]; 50 μM EGCG during the step of attachment, 1 h at 4° C. (Sample 2)",significant reduction of infection
same,infection (luciferase activity),"JFH1-Rluc virus [3]; 50 μM EGCG during the step of endocytosis or fusion, 1 h at 37° C. (Sample 4)",does not seem to have any effect
same,infection (luciferase activity),JFH1-Rluc virus [3]; 50 μM EGCG during the step of interaction with host cell receptors (Sample 3),does not seem to have any effect
same,step of HCV entry inhibited,JFH1-Rluc virus [3],only the step of attachment is inhibited
"Oc1cc(O)c2cc(O)c(-c3cc(O)c(O)c(O)c3)[o+]c2c1 [delphinidin chloride, 3,3′,4′,5,5′,7-Hexahydroxyflavylium chloride]",inhibitory effect across viral genotypes of HCV,[2],observed in all the viral genotypes of HCV
same,IC50,"HCVcc [6]; Hepatitis C virus, Huh-7, read-out: IC50 (concentration inhibiting 50% infection)",~3.5 µM
same,virus attachment to the cell surface,HCVcc [7],strong decrease
same,step of HCV entry inhibited,JFH1-Rluc virus [3],only the step of attachment is inhibited
heparin [reference compound],attachment of the virus to the surface of cells,"HCVcc [7]; 500 μg/mL, positive control",greatly reduced
